# Data taken from US11707440B2 (priority 2017, dated 2023).
# Columns and labels:
# [1] = test system: subjects with MDD at imminent risk for suicide; type: in vivo, human; conditions: esketamine 84 mg
# Description: Transient blood pressure increases peaked for the esketamine group at approximately 40 minutes post dose with the maximum mean increases (across all dosing days) in systolic BP being 8.7 in the placebo group and 16.7 in the esketamine 84 mg group. The maximum mean increases (across all dosing days) in diastolic BP were 7.6 in the placebo group and 11.9 in the esketamine 84 mg group. […] See, FIGS. 46 and 47.
# [2] = test system: female Sprague-Dawley rats, PCG/RSC of the brain; assay: 14-day repeated dose neurotoxicity study, intranasal instillation; conditions: 14-day study, 54 mg/day
# Description: Esketamine HCl was administered into each nostril of female rats at a volume of 50 μl per nostril either once, twice or thrice daily by intranasal instillation for 14 consecutive days at doses of 0 (vehicle), 18, 36 or 54 mg/day. At each instillation, the second nostril was dosed immediately after the first nostril. The interval between subsequent instillations into both nostrils was 5 minutes when dosed 2 or 3 times per day.
# The vehicle control group received 3 subsequent intranasal instillations of the vehicle into both nostrils (50 μL per nostril) with 5-minute intervals for 14 consecutive days.
# The positive control group received a single subcutaneous injection of (+)MK-801 at 48 hours prior to the necropsy of the vehicle control and esketamine HCl-treated animals.
# Each group of main study animals consisted of 12 female rats. Four satellite animals were added to the esketamine HCl-dosed groups of main study animals for TK purposes. The plasma exposure to esketamine was measured in these animals on the first and the last day of dosing at various time points up to and including 24 hours after the first instillation.
# Due to logistic constraints associated with the whole body perfusion procedure of the animals at necropsy, a staggered start was applied to the study. Consequently, all 5 groups of main study animals were divided into three subgroups of 4 animals each. For each of these subgroups treatment started on a different day. The perfusion procedure is the is the same as described for the single dose study.
# All vehicle- and esketamine HCl-treated animals were sacrificed at 48 hours after the last instillation. […] The brain tissue of the vehicle control-, positive control- and esketamine HCl-treated rats were processed at the same time and handled in the same way in batches of 4 animals per group.
# Furthermore, clinical observations were recorded for the esketamine HCl-dosed rats on the day of dosing at 0 till 5 minutes, 15 and 30 minutes, and at 1, 2, 4, 6 hours post-dose, at the end of the working day and at 24 hours after the last instillation in the single dose study and on the first day of dosing, after one week and towards the end of the dosing period in the repeated dose study. Body weight and body weight gain were measured daily. Food consumption was measured weekly in the repeated dose study.
# On the day of terminal kill, a complete physical examination was performed on the rats in fasted condition and body weight was recorded. The surviving animals were anaesthetized by inhalation of an isoflurane (IsoFlo® Zoetis, Belgium)/oxygen mixture and killed by exsanguination via the carotid artery. […] All terminally killed rats or those killed pre-terminally were perfused with 4% paraformaldehyde in the single dose study and with glutaraldehyde 3% in potassium phosphate buffer 0.09 M with 1.4% sucrose in the repeated dose study.
# Brain tissue was sampled and processed routinely. The trimmed and embedded tissue was sectioned and stained with hematoxylin-eosin (HE). Histoprocessing and staining were carried out in three batches of 4 animals per group (each batch thus containing 4 animals from vehicle control-, positive control- and the three esketamine HCl-treated groups). In the single dose study duplicate brain sections were stained with Fluoro-Jade (FJ).
# All tissues showing gross abnormalities were examined […]. Histopathological examination was performed on 7 levels of brain tissue according to Bolon (2013. Toxicol. Pathol. 41(7), 1028-1048) from the vehicle control-, positive control-, and high dose esketamine HCl-treated groups in the single dose study, and in all groups in the repeated dose study.
# [3] = test system: patients with treatment-resistant depression (TRD); assay: CGI-S, Example 7; type: in vivo, human
# Description: Overall illness severity was assessed on the Clinical Global Impression of Severity (CGI-S) scale (Guy, “ECDEU Assessment Manual for Psychopharmacology-Revised (DHEW Publ No ADM 76-338)”, Rockville, Md.: U.S. Department of Health, Education, and Welfare, Public Health Service, Alcohol, Drug Abuse, and Mental Health Administration, NIMH Psychopharmacology Research Branch, Division of Extramural Research Programs; 1976, pp 218-222). Participants assessed their severity of anxiety on the Generalized Anxiety Disorder 7-item (GADS-7) Scale (See, Tables 157 and 15). See, Spitzer, “A brief measure for assessing generalized anxiety disorder—the GAD-7”, Arch. Intern. Med., 2006, 166(10):1092-1097.
smiles,measurement,setting,value
"CN[C@]1(c2ccccc2Cl)CCCCC1=O [esketamine, (S)-2-(2-chlorophenyl)-2-(methylamino)cyclohexanone]",Maximum mean increase in diastolic BP (across all dosing days),[1],11.9
same,Maximum mean increase in systolic BP (across all dosing days),[1],16.7
same,Time of return of blood pressure to normal range,[1],≤ 2 hours post dose
same,AUC-based safety margin compared with the maximum 84 mg clinical dose,[2],~11 fold
same,Cmax-based safety margin compared with the maximum 84 mg clinical dose,[2],approximately 17 fold
same,CGI-S Median Change,"[3]; 28 mg, Period 1, first day to day 8",−1.0
same,CGI-S Median,"[3]; 28 mg, Period 1 end point",4.0
same,CGI-S Median Change,"[3]; 28 mg, Period 2, first day to day 8 of period",−1.0
same,CGI-S Median,"[3]; 28 mg, Period 2 end point",4.0
same,CGI-S Median Change,"[3]; 56 mg, Period 1, first day to day 8",−1.0
same,CGI-S Median,"[3]; 56 mg, Period 1 end point",4.0
same,CGI-S Median Change,"[3]; 56 mg, Period 2, first day to day 8 of period",−1.0
same,CGI-S Median,"[3]; 56 mg, Period 2 endpoint",5.0
same,CGI-S Median Change,"[3]; 84 mg, Period 1, first day to day 8",−0.5
same,CGI-S Median,"[3]; 84 mg, Period 1 end point",4.0
same,CGI-S Median Change,"[3]; 84 mg, Period 2, first day to day 8 of period",−1.0
same,CGI-S Median,"[3]; 84 mg, Period 2 endpoint",4.0
